According to ChEMBL document CHEMBL1128841, “Purification of pig and rat liver squalene epoxidase by affinity chromatography” (Bioorg Med Chem Lett, 1995):

Molecular target: Squalene monooxygenase (Rattus norvegicus, UniProt P52020)
Test: The compound was tested for its inhibitory activity against rat Squalene epoxidase

Sequence of Squalene monooxygenase (P52020 whole entry): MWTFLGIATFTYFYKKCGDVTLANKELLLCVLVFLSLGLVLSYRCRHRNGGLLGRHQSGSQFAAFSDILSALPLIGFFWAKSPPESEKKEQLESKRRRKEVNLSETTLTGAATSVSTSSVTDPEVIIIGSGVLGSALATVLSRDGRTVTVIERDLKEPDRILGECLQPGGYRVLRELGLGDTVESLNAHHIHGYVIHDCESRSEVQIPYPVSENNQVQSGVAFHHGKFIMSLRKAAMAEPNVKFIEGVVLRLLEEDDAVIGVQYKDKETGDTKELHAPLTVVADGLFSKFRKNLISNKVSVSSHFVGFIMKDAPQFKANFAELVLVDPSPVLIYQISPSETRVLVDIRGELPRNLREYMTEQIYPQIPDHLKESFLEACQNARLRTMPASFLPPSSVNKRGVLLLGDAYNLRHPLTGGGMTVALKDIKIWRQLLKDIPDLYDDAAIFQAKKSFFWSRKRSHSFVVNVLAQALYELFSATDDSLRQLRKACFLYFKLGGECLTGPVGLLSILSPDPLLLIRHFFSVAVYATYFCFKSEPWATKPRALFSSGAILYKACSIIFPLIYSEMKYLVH

IC50: 1000 nM
Compound: CNCCC/C(C)=C/CC/C(C)=C/CC/C=C(\C)CC/C=C(\C)CCCNCCCCCCN
